System: MSCs
Experiment: Whole genome expression analysis (Illumina microarray) of treated MSCs
Type: cell-based, Human
Experimental: MSCs were seeded in T25 flasks at 5000 cells/cm^2 and allowed to attach overnight in proliferation medium. […] After 48 hours, RNA was isolated as described above. From 500 ng of RNA, cRNA was synthesized using the Illumina TotalPrep RNA amplification Kit (Ambion), according to the manufacturer's protocol and the quality of RNA and cRNA was verified on a Bioanalyzer 2100 (Agilent). Microarrays were performed using Illumina HT-12 v4 expression Beadchips, according to the manufacturer's protocol. Briefly, 750 ng of cRNA was hybridized on the array overnight after which the array was washed and blocked. Then, by addition of streptavidin Cy-3 a fluorescent signal was developed. Arrays were scanned on an Illumina iScan reader and raw intensity values were background corrected in GenomeStudio (Illumina). Further data processing and statistical testing were performed with R and Bioconductor statistical software (www.bioconductor.org), using package lumi. Raw intensity values were transformed using variance stabilization and a quantile normalization was performed. A linear modelling approach with empirical Bayesian methods, as implemented in Limma package (54), was applied for differential expression analysis of the resulting probe-level expression values. A gene list, containing only those genes with an absolute 1.5-fold change between different treatments, was uploaded to Ingenuity Pathway Analysis (IPA) software and used for core analysis. Pathways or networks with a p-value of 0.05 were considered statistically significant.

For c1cnc2c(c1)ccc1cccnc12 [PHE, 1, 10-phenanthroline], the “logFC(D142_PHE - D142_BAS) IL6” value (ProbeID ILMN_1699651) was -2,31, the “logFC(D142_PHE - D142_BAS) RRAGD” value (ProbeID ILMN_1699772) was 3,13 and the “logFC(D142_PHE - D142_BAS) TSPAN18” value (ProbeID ILMN_1699980) was -2,03. For the same compound, the “logFC(D142_PHE - D142_BAS) QPRT” value (ProbeID ILMN_1700268, PHE vs BAS) was -2,59, the “logFC(D142_PHE - D142_BAS) LPAR1” value (ProbeID ILMN_1701441, PHE vs BAS) was -2,35 and the “logFC(D142_PHE - D142_BAS) SULF1” value (ProbeID ILMN_1702363, PHE vs BAS) was -2,90. The “logFC(D142_PHE - D142_BAS) AXUD1” value (ProbeID ILMN_1703123) was 2,51, the “logFC(D142_PHE - D142_BAS) FEM1C” value (ProbeID ILMN_1703330) was 2,53 and the “logFC(D142_PHE - D142_BAS) FHL3” value (ProbeID ILMN_1703558) was -2,34. The “logFC(D142_PHE - D142_BAS) TNFRSF19” value (ProbeID ILMN_1704154) was -2,24, the “logFC(D142_PHE - D142_BAS) SLC6A10P” value (ProbeID ILMN_1704446) was 3,23 and the “logFC(D142_PHE - D142_BAS) PTGR1” value (ProbeID ILMN_1704531) was 2,56. The “logFC(D142_PHE - D142_BAS) TGM2” value (ProbeID ILMN_1705750, PHE vs BAS) was -2,98, the “logFC(D142_PHE - D142_BAS) DSE” value (ProbeID ILMN_1706498) was -2,19 and the “logFC(D142_PHE - D142_BAS) TFPI” value (ProbeID ILMN_1707124) was 2,04. For the same compound, the “logFC(D142_PHE - D142_BAS) LRIG1” value (ProbeID ILMN_1707342) was 2,82, the “logFC(D142_PHE - D142_BAS) ANGPTL4” value (ProbeID ILMN_1707727) was 7,28 and the “logFC(D142_PHE - D142_BAS) CNN2” value (ProbeID ILMN_1708486) was -2,15. The “logFC(D142_PHE - D142_BAS) ACAT2” value (ProbeID ILMN_1708672) was -2,03, the “logFC(D142_PHE - D142_BAS) ADM” value (ProbeID ILMN_1708934) was 2,48 and the “logFC(D142_PHE - D142_BAS) C9orf46” value (ProbeID ILMN_1709043) was -2,08. The “logFC(D142_PHE - D142_BAS) EMILIN1” value (ProbeID ILMN_1711439) was -2,30, the “logFC(D142_PHE - D142_BAS) FAM20C” value (ProbeID ILMN_1712684) was -2,12 and the “logFC(D142_PHE - D142_BAS) WISP1” value (ProbeID ILMN_1713499) was -2,11. The “logFC(D142_PHE - D142_BAS) UBE2C” value (ProbeID ILMN_1714730) was -2,16, the “logFC(D142_PHE - D142_BAS) LOC346887” value (ProbeID ILMN_1714741) was 2,46 and the “logFC(D142_PHE - D142_BAS) NNMT” value (ProbeID ILMN_1715508, PHE vs BAS) was -2,62. The “logFC(D142_PHE - D142_BAS) ENAH” value (ProbeID ILMN_1716552) was -2,13, the “logFC(D142_PHE - D142_BAS) NGF” value (ProbeID ILMN_1716608) was 2,06 and the “logFC(D142_PHE - D142_BAS) TPM1” value (ProbeID ILMN_1716687) was -2,28. The “logFC(D142_PHE - D142_BAS) MYOM2” value (ProbeID ILMN_1716733) was 2,05, the “logFC(D142_PHE - D142_BAS) TXNRD1” value (ProbeID ILMN_1717056) was 2,75 and the “logFC(D142_PHE - D142_BAS) C5orf46” value (ProbeID ILMN_1718866) was 3,15. For the same compound, the “logFC(D142_PHE - D142_BAS) BNIP3L” value (ProbeID ILMN_1718961) was 2,88, the “logFC(D142_PHE - D142_BAS) FH” value (ProbeID ILMN_1719392, PHE vs BAS) was -2,67 and the “logFC(D142_PHE - D142_BAS) TNC” value (ProbeID ILMN_1719759, PHE vs BAS) was -3,17. For the same compound, the “logFC(D142_PHE - D142_BAS) SLC7A5” value (ProbeID ILMN_1720373) was 2,69, the “logFC(D142_PHE - D142_BAS) CA12” value (ProbeID ILMN_1720998) was 2,41 and the “logFC(D142_PHE - D142_BAS) JMJD1A” value (ProbeID ILMN_1722532) was 3,45. For the same compound, the “logFC(D142_PHE - D142_BAS) HK2” value (ProbeID ILMN_1723486) was 2,90, the “logFC(D142_PHE - D142_BAS) IFI44L” value (ProbeID ILMN_1723912) was -2,15 and the “logFC(D142_PHE - D142_BAS) BNIP3” value (ProbeID ILMN_1724658) was 3,47. The “logFC(D142_PHE - D142_BAS) RIOK3” value (ProbeID ILMN_1724700) was 2,40, the “logFC(D142_PHE - D142_BAS) CTHRC1” value (ProbeID ILMN_1725090, PHE vs BAS) was -2,95 and the “logFC(D142_PHE - D142_BAS) CA9” value (ProbeID ILMN_1725139) was 3,69. For the same compound, the “logFC(D142_PHE - D142_BAS) GSTK1” value (ProbeID ILMN_1725241) was -2,02, the “logFC(D142_PHE - D142_BAS) SLC3A2” value (ProbeID ILMN_1726456) was 2,24 and the “logFC(D142_PHE - D142_BAS) CD248” value (ProbeID ILMN_1726589) was -2,13. The “logFC(D142_PHE - D142_BAS) OLFML3” value (ProbeID ILMN_1727532, PHE vs BAS) was -3,25, the “logFC(D142_PHE - D142_BAS) AKR1A1” value (ProbeID ILMN_1728047) was -2,21 and the “logFC(D142_PHE - D142_BAS) PRC1” value (ProbeID ILMN_1728934, PHE vs BAS) was -2,53. For the same compound, the “logFC(D142_PHE - D142_BAS) COL5A2” value (ProbeID ILMN_1729117) was -2,21, the “logFC(D142_PHE - D142_BAS) C1QTNF6” value (ProbeID ILMN_1729288) was -2,08 and the “logFC(D142_PHE - D142_BAS) LEPR” value (ProbeID ILMN_1731966) was -2,03. For the same compound, the “logFC(D142_PHE - D142_BAS) SHB” value (ProbeID ILMN_1732612) was 2,06, the “logFC(D142_PHE - D142_BAS) STEAP1” value (ProbeID ILMN_1733094, PHE vs BAS) was -2,54 and the “logFC(D142_PHE - D142_BAS) RASSF7” value (ProbeID ILMN_1733110) was 2,83. The “logFC(D142_PHE - D142_BAS) COL12A1” value (ProbeID ILMN_1733756, PHE vs BAS) was -3,95, the “logFC(D142_PHE - D142_BAS) PPP1R3C” value (ProbeID ILMN_1736670) was 2,44 and the “logFC(D142_PHE - D142_BAS) TMEM119” value (ProbeID ILMN_1738116, PHE vs BAS) was -4,96. The “logFC(D142_PHE - D142_BAS) SLC1A3” value (ProbeID ILMN_1738552) was -2,18, the “logFC(D142_PHE - D142_BAS) PLAT” value (ProbeID ILMN_1738742) was 2,16 and the “logFC(D142_PHE - D142_BAS) PRRX1” value (ProbeID ILMN_1739496, PHE vs BAS) was -2,36. For the same compound, the “logFC(D142_PHE - D142_BAS) FAM117B” value (ProbeID ILMN_1739942) was 2,48, the “logFC(D142_PHE - D142_BAS) CHSY3” value (ProbeID ILMN_1740407, PHE vs BAS) was -2,57 and the “logFC(D142_PHE - D142_BAS) ALDOA” value (ProbeID ILMN_1741148) was 2,28. The “logFC(D142_PHE - D142_BAS) RFX5” value (ProbeID ILMN_1741200) was -2,04, the “logFC(D142_PHE - D142_BAS) PRICKLE1” value (ProbeID ILMN_1741356, PHE vs BAS) was -2,37 and the “logFC(D142_PHE - D142_BAS) C1QTNF5” value (ProbeID ILMN_1744487, PHE vs BAS) was -2,59. The “logFC(D142_PHE - D142_BAS) ERO1L” value (ProbeID ILMN_1744963) was 3,84, the “logFC(D142_PHE - D142_BAS) CEP55” value (ProbeID ILMN_1747016) was -2,01 and the “logFC(D142_PHE - D142_BAS) PSMB8” value (ProbeID ILMN_1747195) was -2,24. For the same compound, the “logFC(D142_PHE - D142_BAS) CDKN2D” value (ProbeID ILMN_1748883) was 2,14, the “logFC(D142_PHE - D142_BAS) MZF1” value (ProbeID ILMN_1749838) was 2,45 and the “logFC(D142_PHE - D142_BAS) EGLN1” value (ProbeID ILMN_1749892) was 2,72. For the same compound, the “logFC(D142_PHE - D142_BAS) IGFBP5” value (ProbeID ILMN_1750324) was 2,34, the “logFC(D142_PHE - D142_BAS) STXBP6” value (ProbeID ILMN_1750912) was 2,42 and the “logFC(D142_PHE - D142_BAS) HIST1H4H” value (ProbeID ILMN_1751120) was 2,86. For the same compound, the “logFC(D142_PHE - D142_BAS) C20orf46” value (ProbeID ILMN_1751228) was 2,17, the “logFC(D142_PHE - D142_BAS) P2RY11” value (ProbeID ILMN_1752226) was 2,23 and the “logFC(D142_PHE - D142_BAS) FAM13A” value (ProbeID ILMN_1752510) was 3,25. For the same compound, the “logFC(D142_PHE - D142_BAS) LMCD1” value (ProbeID ILMN_1754969, PHE vs BAS) was -2,67, the “logFC(D142_PHE - D142_BAS) PGK1” value (ProbeID ILMN_1755749) was 2,85 and the “logFC(D142_PHE - D142_BAS) ALDOC” value (ProbeID ILMN_1755974) was 2,83. The “logFC(D142_PHE - D142_BAS) ANKRD37” value (ProbeID ILMN_1756417) was 4,25, the “logFC(D142_PHE - D142_BAS) COQ2” value (ProbeID ILMN_1756572, PHE vs BAS) was -2,49 and the “logFC(D142_PHE - D142_BAS) NDUFA4L2” value (ProbeID ILMN_1756573) was 5,61. For the same compound, the “logFC(D142_PHE - D142_BAS) MUC1” value (ProbeID ILMN_1756992) was 2,56, the “logFC(D142_PHE - D142_BAS) HCFC1R1” value (ProbeID ILMN_1757877) was 2,05 and the “logFC(D142_PHE - D142_BAS) STC1” value (ProbeID ILMN_1758164) was 4,35. The “logFC(D142_PHE - D142_BAS) HIST1H2BD” value (ProbeID ILMN_1758623) was 3,29, the “logFC(D142_PHE - D142_BAS) IDS” value (ProbeID ILMN_1758626) was 2,05 and the “logFC(D142_PHE - D142_BAS) FAM107B” value (ProbeID ILMN_1758672) was 2,44.
